Assay results: ChEMBL document CHEMBL4665665, “4-Aryl Pyrrolidines as Novel Orally Efficacious Antimalarial Agents. Part 2: 2-Aryl-N-(4-arylpyrrolidin-3-yl)acetamides” (ACS Med Chem Lett, 2019)
Calls of active or inactive are those of the source. No cut-off for these calls is given here.

How the values were obtained:
Plasmodium falciparum [1] = experiment: Inhibition of Plasmodium falciparum plasmepsin 4 using PM-2 peptide substrate incubated for 60 mis by fluorescence based assay; conditions: time 60.0 min
[2] = (§1) Plasma concentration in NIH mouse infected with Plasmodium chabaudi ASS at 10 mg/kg, po qd for 4 days starting from 4 hrs post-parasite inoculation and measured at 1 hr post-dosing on day 4 by LC/MS analysis; assay type: ADME, organism-based; conditions: dose 10 mg/kg/day, time 4 day
Plasmodium falciparum [3] = experiment: Antimalarial activity against multidrug resistant Plasmodium falciparum Dd2 incubated for 72 hrs by SYBR Green-1 dye based fluorescence assay; assay type: functional, organism-based; conditions: Dd2, 72 h
[4] = Apparent volume of distribution in KM mouse at 2 mg/kg, iv administered as cassette dosing measured up to 24 hrs by LC/MS analysis; assay type: ADME, organism-based; conditions: in vivo, read-out: Vz
HepG2 [5] = experiment: Cytotoxicity against human HepG2 cells assessed as cell viability at 5 uM incubated for 72 hrs by PrestoBlue cell viability reagent based assay; conditions: hepg2, 72 h
Cytochrome P450 2C19 = Cytochrome P450 2C19 (Homo sapiens, UniProt P33261); experiment: Inhibition of recombinant human CYP2C19 expressed in baculovirus infected insect cells using s-mephenytoin as substrate incubated for 30 mins in presence of NADPH-regenerating system by fluorescence based assay; assay type: ADME
[6] = as §1, with “Ratio of IC50 for antimalarial activity against CQ-sensitive Plasmodium falciparum 3D7 incubated for 72 hrs by SYBR Green-1 dye based fluorescence assay to Plasma” for “Plasma”, “24 hrs” for “1 hr”
[7] = Plasma concentration in NIH mouse infected with Plasmodium chabaudi ASS at 10 mg/kg, po qd for 4 days starting from 4 hrs post-parasite inoculation and measured at 24 hrs post-dosing on day 4 by LC/MS analysis; assay type: ADME, organism-based; conditions: dose 10 mg/kg/day, time 4 day
[8] = molecular target: Voltage-gated inwardly rectifying potassium channel KCNH2 (Homo sapiens, UniProt Q12809); experiment: Displacement of Tracer Red from human ERG incubated for 2 hrs by fluorescence polarization assay
Cytochrome P450 3A4 = Cytochrome P450 3A4 (Homo sapiens, UniProt P08684); experiment: Inhibition of recombinant human CYP3A4 expressed in baculovirus infected insect cells using midazolam as substrate incubated for 30 mins in presence of NADPH-regenerating system by fluorescence based assay; assay type: ADME
Plasmodium chabaudi [9] = experiment: Antimalarial activity against Plasmodium chabaudi ASS infected in NIH mouse assessed as inhibition of parasitemia at 10 mg/kg, po qd for 4 days starting from 4 hrs post-parasite inoculation and measured at 24 hrs after last-drug treatment by Peter's 4-day suppressive test relative to control; assay type: functional; conditions: 96 h
[10] = Apparent clearance in KM mouse at 2 mg/kg, iv administered as cassette dosing measured up to 24 hrs by LC/MS analysis; assay type: ADME, organism-based; conditions: in vivo
Cytochrome P450 2C9 = Cytochrome P450 2C9 (Homo sapiens, UniProt P11712); experiment: Inhibition of recombinant human CYP2C9 expressed in baculovirus infected insect cells using tolbutamide as substrate incubated for 30 mins in presence of NADPH-regenerating system by fluorescence based assay; assay type: ADME
hERG = experiment: Selectivity ratio of IC50 for human ERG incubated for 2 hrs by fluorescence polarization assay to IC50 for CQ-sensitive Plasmodium falciparum 3D7 incubated for 72 hrs by SYBR Green-1 dye based fluorescence assay; assay type: toxicity; conditions: read-out: Ratio IC50
Cytochrome P450 2D6 = Cytochrome P450 2D6 (Homo sapiens, UniProt P10635); experiment: Inhibition of recombinant human CYP2D6 expressed in baculovirus infected insect cells using dextromethorphan as substrate incubated for 30 mins in presence of NADPH-regenerating system by fluorescence based assay; assay type: ADME
[11] = Plasma concentration in NIH mouse infected with Plasmodium chabaudi ASS at 10 mg/kg, po qd for 4 days starting from 4 hrs post-parasite inoculation and measured at 6 hrs post-dosing on day 4 by LC/MS analysis; assay type: ADME, organism-based; conditions: dose 10 mg/kg/day, time 4 day
[12] = molecular target: Plasmepsin II (Plasmodium falciparum) (UniProt P46925); experiment: Inhibition of Plasmodium falciparum plasmepsin 2 using PM-2 peptide substrate incubated for 60 mis by fluorescence based assay; conditions: time 60.0 min
Cytochrome P450 1A2 = molecular target: T1, Cytochrome P450 1A2 (Homo sapiens, UniProt P05177); experiment: Inhibition of recombinant human CYP1A2 expressed in baculovirus infected insect cells using phenacetin as substrate incubated for 30 mins in presence of NADPH-regenerating system by fluorescence based assay; assay type: ADME
T1 sequence (P05177 whole entry): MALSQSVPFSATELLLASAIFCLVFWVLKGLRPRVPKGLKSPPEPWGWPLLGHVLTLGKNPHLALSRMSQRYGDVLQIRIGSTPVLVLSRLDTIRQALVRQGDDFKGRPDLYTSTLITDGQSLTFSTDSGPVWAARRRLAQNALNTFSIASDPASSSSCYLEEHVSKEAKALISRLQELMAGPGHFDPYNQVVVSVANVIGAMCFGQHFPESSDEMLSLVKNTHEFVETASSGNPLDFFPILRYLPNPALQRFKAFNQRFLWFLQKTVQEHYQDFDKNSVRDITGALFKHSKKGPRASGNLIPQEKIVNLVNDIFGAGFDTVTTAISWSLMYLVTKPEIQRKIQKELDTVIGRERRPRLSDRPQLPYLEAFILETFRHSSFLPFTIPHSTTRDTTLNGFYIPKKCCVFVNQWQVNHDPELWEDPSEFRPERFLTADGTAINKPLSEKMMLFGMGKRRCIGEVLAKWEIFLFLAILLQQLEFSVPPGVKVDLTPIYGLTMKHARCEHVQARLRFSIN

[13] = Half life in KM mouse at 2 mg/kg, iv administered as cassette dosing measured up to 24 hrs by LC/MS analysis; assay type: ADME, organism-based; conditions: in vivo
Plasmodium falciparum [14] = experiment: Antimalarial activity against CQ-sensitive Plasmodium falciparum 3D7 incubated for 72 hrs by SYBR Green-1 dye based fluorescence assay; assay type: functional, organism-based; conditions: Plasmodium falciparum, 3D7, 72 h
[15] = molecular target: Beta-secretase 1 (Homo sapiens) (UniProt P56817); experiment: Inhibition of recombinant human BACE1 using Mca-SEVNLDAEFRK(Dnp)RR-NH2 fluorogenic peptide as substrate incubated for 60 mis by fluorescence based assay; conditions: time 60.0 min
[16] = Plasma concentration in NIH mouse infected with Plasmodium chabaudi ASS at 3 mg/kg, po qd for 4 days starting from 4 hrs post-parasite inoculation and measured at 6 hrs post-dosing on day 4 by LC/MS analysis; assay type: ADME, organism-based; conditions: dose 3 mg/kg/day, time 4 day
[17] = Plasma concentration in NIH mouse infected with Plasmodium chabaudi ASS at 3 mg/kg, po qd for 4 days starting from 4 hrs post-parasite inoculation and measured at 24 hrs post-dosing on day 4 by LC/MS analysis; assay type: ADME, organism-based; conditions: dose 3 mg/kg/day, time 4 day
[18] = Plasma concentration in NIH mouse infected with Plasmodium chabaudi ASS at 3 mg/kg, po qd for 4 days starting from 4 hrs post-parasite inoculation and measured at 1 hr post-dosing on day 4 by LC/MS analysis; assay type: ADME, organism-based; conditions: dose 3 mg/kg/day, time 4 day
[19] = Plasma concentration in NIH mouse infected with Plasmodium chabaudi ASS at 30 mg/kg, po qd for 4 days starting from 4 hrs post-parasite inoculation and measured at 1 hr post-dosing on day 4 by LC/MS analysis; assay type: ADME, organism-based; conditions: dose 30 mg/kg/day, time 4 day
[20] = Plasma concentration in NIH mouse infected with Plasmodium chabaudi ASS at 30 mg/kg, po qd for 4 days starting from 4 hrs post-parasite inoculation and measured at 6 hrs post-dosing on day 4 by LC/MS analysis; assay type: ADME, organism-based; conditions: dose 30 mg/kg/day, time 4 day
Plasmodium chabaudi [21] = experiment: Antimalarial activity against Plasmodium chabaudi ASS infected in NIH mouse assessed as inhibition of parasitemia at 30 mg/kg, po qd for 4 days starting from 4 hrs post-parasite inoculation and measured at 24 hrs after last-drug treatment by Peter's 4-day suppressive test relative to control; assay type: functional; conditions: 96 h
HepG2 [22] = experiment: Cytotoxicity against human HepG2 cells assessed as cell viability at 50 uM incubated for 72 hrs by PrestoBlue cell viability reagent based assay; conditions: hepg2, 72 h
[23] = Plasma concentration in NIH mouse infected with Plasmodium chabaudi ASS at 30 mg/kg, po qd for 4 days starting from 4 hrs post-parasite inoculation and measured at 24 hrs post-dosing on day 4 by LC/MS analysis; assay type: ADME, organism-based; conditions: dose 30 mg/kg/day, time 4 day
Plasmodium chabaudi [24] = experiment: Antimalarial activity against Plasmodium chabaudi ASS infected in NIH mouse assessed as inhibition of parasitemia at 3 mg/kg, po qd for 4 days starting from 4 hrs post-parasite inoculation and measured at 24 hrs after last-drug treatment by Peter's 4-day suppressive test relative to control; assay type: functional; conditions: 96 h
Plasmodium chabaudi [25] = experiment: Antimalarial activity against Plasmodium chabaudi ASS infected po dosed NIH mouse assessed as inhibition of parasitemia administered oce daily for 4 days starting from 4 hrs post parasite-inoculation and measured at 24 hrs post-last treatment by Peter's 4-day suppressive test; assay type: functional; conditions: 96 h

Chain of Plasmepsin II (Plasmodium falciparum) (P46925 125-453 limits assumed): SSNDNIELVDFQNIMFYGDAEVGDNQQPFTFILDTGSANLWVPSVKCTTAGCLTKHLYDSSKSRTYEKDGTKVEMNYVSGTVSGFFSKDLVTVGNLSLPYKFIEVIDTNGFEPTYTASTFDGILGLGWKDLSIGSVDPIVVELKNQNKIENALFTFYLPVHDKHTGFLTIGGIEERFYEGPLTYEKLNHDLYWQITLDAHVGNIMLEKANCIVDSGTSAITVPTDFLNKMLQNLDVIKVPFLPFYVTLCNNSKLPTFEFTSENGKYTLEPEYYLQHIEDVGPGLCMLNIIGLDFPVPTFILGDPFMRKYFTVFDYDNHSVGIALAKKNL
Chain of Cytochrome P450 2C9 (P11712 whole entry): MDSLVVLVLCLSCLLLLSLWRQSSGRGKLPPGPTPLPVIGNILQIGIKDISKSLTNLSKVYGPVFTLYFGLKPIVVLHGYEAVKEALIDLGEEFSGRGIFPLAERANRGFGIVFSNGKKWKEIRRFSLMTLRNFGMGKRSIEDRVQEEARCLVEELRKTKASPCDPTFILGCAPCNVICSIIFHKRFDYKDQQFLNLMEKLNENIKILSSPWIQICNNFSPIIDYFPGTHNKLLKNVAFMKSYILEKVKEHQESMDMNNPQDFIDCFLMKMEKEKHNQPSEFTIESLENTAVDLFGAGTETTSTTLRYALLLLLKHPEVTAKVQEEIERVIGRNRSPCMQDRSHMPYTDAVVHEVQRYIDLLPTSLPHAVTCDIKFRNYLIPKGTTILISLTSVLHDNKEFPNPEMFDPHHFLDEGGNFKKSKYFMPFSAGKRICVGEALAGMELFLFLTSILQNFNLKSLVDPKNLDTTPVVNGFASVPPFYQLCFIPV
Chain of Beta-secretase 1 (Homo sapiens) (P56817 whole entry): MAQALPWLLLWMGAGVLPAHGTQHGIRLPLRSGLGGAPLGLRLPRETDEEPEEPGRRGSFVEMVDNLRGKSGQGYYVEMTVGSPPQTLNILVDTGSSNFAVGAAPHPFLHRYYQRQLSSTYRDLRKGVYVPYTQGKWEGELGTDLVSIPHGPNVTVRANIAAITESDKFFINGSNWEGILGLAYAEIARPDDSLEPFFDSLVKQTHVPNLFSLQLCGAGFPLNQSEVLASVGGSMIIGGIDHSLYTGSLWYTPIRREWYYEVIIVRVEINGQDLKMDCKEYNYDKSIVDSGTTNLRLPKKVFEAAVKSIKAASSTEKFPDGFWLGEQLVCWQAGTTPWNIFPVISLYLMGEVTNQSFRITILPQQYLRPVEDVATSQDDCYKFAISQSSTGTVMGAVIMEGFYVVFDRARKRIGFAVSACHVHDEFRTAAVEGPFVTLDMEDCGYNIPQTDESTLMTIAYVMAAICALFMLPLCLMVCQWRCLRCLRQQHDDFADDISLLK
Chain of Cytochrome P450 2C19 (P33261 whole entry): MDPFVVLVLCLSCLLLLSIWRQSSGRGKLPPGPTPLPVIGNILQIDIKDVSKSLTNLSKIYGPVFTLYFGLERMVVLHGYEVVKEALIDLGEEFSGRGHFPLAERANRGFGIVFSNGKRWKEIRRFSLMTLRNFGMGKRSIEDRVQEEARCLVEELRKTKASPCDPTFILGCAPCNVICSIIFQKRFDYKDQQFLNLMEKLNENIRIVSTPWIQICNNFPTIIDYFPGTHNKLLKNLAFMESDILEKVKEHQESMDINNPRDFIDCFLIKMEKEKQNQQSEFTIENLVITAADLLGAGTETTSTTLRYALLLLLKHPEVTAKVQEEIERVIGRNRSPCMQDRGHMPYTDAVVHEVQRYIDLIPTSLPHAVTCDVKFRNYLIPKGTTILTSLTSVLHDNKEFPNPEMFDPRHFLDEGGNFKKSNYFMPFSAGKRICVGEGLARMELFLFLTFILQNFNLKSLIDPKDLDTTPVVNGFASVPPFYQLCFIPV
Chain of Cytochrome P450 3A4 (P08684 whole entry): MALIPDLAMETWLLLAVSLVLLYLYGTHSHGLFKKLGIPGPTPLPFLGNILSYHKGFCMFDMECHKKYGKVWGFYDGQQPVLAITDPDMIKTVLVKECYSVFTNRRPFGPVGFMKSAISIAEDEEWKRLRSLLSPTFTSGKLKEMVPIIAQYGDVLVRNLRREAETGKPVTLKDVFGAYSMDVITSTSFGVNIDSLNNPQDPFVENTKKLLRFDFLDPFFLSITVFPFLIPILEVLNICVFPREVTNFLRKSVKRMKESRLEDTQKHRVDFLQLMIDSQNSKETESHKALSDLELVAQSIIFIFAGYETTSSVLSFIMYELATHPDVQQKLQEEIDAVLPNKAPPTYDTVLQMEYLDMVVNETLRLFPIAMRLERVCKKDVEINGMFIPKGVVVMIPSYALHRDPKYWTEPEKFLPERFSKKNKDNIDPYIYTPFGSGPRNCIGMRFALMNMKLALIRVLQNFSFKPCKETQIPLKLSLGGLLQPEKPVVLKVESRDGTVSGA
Chain of Cytochrome P450 2D6 (P10635 whole entry): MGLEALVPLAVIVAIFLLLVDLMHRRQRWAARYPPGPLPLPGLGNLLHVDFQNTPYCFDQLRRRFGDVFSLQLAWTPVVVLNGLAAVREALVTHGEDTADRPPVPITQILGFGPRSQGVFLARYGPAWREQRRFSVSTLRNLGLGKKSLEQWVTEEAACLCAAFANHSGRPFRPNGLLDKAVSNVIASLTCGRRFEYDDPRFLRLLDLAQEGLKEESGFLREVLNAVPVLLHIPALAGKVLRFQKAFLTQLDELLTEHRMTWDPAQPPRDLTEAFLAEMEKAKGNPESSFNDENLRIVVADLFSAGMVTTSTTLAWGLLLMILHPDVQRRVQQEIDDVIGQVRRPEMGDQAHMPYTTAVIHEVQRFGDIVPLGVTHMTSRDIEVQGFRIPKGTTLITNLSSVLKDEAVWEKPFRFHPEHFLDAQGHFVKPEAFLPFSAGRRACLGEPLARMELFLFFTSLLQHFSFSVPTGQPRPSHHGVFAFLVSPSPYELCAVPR
Chain of Voltage-gated inwardly rectifying potassium channel KCNH2 (Q12809 whole entry): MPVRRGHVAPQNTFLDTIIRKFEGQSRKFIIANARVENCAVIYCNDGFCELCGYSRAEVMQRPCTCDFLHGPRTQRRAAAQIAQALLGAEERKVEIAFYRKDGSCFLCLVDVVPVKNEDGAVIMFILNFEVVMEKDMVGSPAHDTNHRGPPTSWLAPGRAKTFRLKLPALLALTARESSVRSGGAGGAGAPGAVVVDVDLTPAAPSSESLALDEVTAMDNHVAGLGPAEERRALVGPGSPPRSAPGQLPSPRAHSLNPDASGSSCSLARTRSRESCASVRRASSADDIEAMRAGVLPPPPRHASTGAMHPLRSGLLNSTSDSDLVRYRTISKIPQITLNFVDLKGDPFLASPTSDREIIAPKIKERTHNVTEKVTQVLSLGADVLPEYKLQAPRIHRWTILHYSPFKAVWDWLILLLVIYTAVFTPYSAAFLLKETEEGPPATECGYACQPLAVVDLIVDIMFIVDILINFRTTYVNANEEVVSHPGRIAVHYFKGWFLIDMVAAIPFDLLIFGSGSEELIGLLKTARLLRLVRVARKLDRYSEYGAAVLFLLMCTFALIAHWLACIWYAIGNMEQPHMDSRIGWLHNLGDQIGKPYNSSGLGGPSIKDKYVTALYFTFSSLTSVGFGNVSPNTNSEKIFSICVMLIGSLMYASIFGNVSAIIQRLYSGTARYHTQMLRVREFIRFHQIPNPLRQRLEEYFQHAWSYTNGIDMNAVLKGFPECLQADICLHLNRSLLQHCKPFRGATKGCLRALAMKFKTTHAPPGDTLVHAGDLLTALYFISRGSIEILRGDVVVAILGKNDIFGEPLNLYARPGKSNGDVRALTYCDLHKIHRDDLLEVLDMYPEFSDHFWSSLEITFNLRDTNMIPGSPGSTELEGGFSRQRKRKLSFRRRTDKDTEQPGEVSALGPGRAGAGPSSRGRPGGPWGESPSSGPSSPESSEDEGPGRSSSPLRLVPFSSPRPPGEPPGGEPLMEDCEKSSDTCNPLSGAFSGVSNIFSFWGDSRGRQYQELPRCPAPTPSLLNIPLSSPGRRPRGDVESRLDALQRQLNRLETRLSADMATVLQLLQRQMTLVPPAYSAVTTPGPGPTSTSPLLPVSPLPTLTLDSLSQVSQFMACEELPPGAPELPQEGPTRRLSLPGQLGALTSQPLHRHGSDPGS

Compound	inhibition (Plasmodium falciparum [1])	concentration at 96 h [2]	IC50 (Plasmodium falciparum [3])	Vd [4]	Activity (HepG2 [5])	IC50 (Cytochrome P450 2C19)	Ratio [6]	concentration at 96 h [7]	IC50 [8]	IC50 (Cytochrome P450 3A4)	inhibition in vivo at 10 mg/kg/day (Plasmodium chabaudi [9])	clearance [10]	IC50 (Cytochrome P450 2C9)	IC50 (Cytochrome P450 2D6)	concentration at 96 h [11]	inhibition [12]	IC50 (Cytochrome P450 1A2)	half-life [13]	IC50 (Plasmodium falciparum [14])	inhibition [15]	other results
CN(C)c1ccc(CC(=O)N[C@@H]2CNC[C@H]2c2ccc(S(F)(F)(F)(F)F)cc2)cc1	inactive	129 nM	0.089 µM	6.2 L/kg	Non-Toxic	29.4 µM	6	14.9 nM	2.57 µM	0.159 µM	65.3%	10.5 mL/min/kg	36.6 µM	90 µM	119 nM	inactive	> 100 µM	7 h	0.091 µM	inactive	selectivity ratio at 2 h (hERG): 28
CN(C)c1ccc(CC(=O)N[C@@H]2CNC[C@H]2c2ccc(C(F)(F)F)cc2)cc1	inactive	255 nM	0.078 µM	4.2 L/kg	Non-Toxic	45.4 µM	6	7.4 nM	5.91 µM	0.871 µM	61.2%	7.9 mL/min/kg	98.1 µM	24.5 µM	181 nM	inactive	> 100 µM	5.6 h	0.12 µM	inactive	selectivity ratio at 2 h (hERG): 49
CN(C)c1ccc(CC(=O)N[C@@H]2CNC[C@H]2c2ccc(C(C)(F)F)cc2)cc1	inactive	389 nM	0.053 µM	2.1 L/kg	Non-Toxic	49.7 µM		1.7 nM		2.5 µM	94.1%	13.8 mL/min/kg	> 100 µM	40.6 µM	48.9 nM	inactive	> 100 µM	2.7 h	0.051 µM	inactive	concentration at 96 h [16]: 34.1 nM; concentration at 96 h [17]: 6.6 nM; concentration at 96 h [18]: 114 nM; concentration at 96 h [19]: 1310 nM; concentration at 96 h [20]: 1150 nM; inhibition in vivo at 30 mg/kg/day (Plasmodium chabaudi [21]): 99.9%; Activity (HepG2 [22]): Non-Toxic; concentration at 96 h [23]: 28.5 nM; inhibition in vivo at 3 mg/kg/day (Plasmodium chabaudi [24]): 34%; ED90 (Plasmodium chabaudi [25]): < 10 mg/kg/day; ED99 (Plasmodium chabaudi [25]): 30 mg/kg/day
CCN(CC)CCCC(C)Nc1ccnc2cc(Cl)ccc12 (stereo unspecified) [CHLOROQUINE]		80.7 nM						68.6 nM			99.9%				83.4 nM						
C[C@H](NC(=O)[C@H]1CNC[C@@H]1c1ccc(C(F)(F)F)cc1)c1ccc(N(C)C)cc1																					inhibition in vivo at 30 mg/kg/day (Plasmodium chabaudi [21]): 92.2%
